Measured values reported in patent US10154974B1, “Use of abscisic acid for the prevention and treatment of malaria” (The Regents of the University of California, priority 2015, dated 2018).

What was measured:
[1] = system: gsk3; test: gsk3 phosphorylation in mosquito midgut; assay type: in vivo, Anopheles stephensi; conditions: midguts of ABA-treated, P. falciparum-fed mosquitoes
Method: Fold change is shown in levels of phosphorylated AMPK (FIG. 13A), and gsk3 (FIG. 13B) in the midguts of ABA-treated, P. falciparum-fed mosquitoes compared to controls. Each dot represents one replicate of 15 pooled midguts. Data were analyzed by one sample t-test. * p<0.05.

[2] = system: P. falciparum 3D7; test: P. falciparum gametocyte formation assay; assay type: cell-based; conditions: 10 nM or 100 nM ABA, 6, 8 or 10 days post culture synchronization
Method: Studies of the effects of ABA on gametocyte formation were performed with P. falciparum 3D7 engineered to express GFP under the control of alpha tubulin II and Pfs25 promoters. Parasite cultures were synchronized using sorbitol. At 48 hours post-synchronization, 200 μL aliquots of parasite culture and complete RPMI medium were placed in a 96-well flat-bottomed plate and treated with 10 nM ABA, 100 nM ABA, or a diluent control. Media and treatments were refreshed every 48 hours. At 4, 6 and 8 days after the start of treatment, separate aliquots were harvested, media was removed, and replaced with 10% formalin for 1 hour at room temperature. Formalin was removed and replaced with PBS before gametocyte levels were measured by flow cytometry using a FACS Calibur flow cytometer (BD Biosciences) with a GFP filter. Four replicates were carried out, each using a separate parasite culture passage. Relative changes in gametocyte numbers were normalized to controls set at 1 and analyzed by one-sample t-test.

[3] = system: cytokine and immune-regulators; test: Cytokine and immune-regulator mRNA in spleen and liver; assay type: in vivo; conditions: CD1 mice, day 4 and 7 post-infection
Method: FIG. 23A-B illustrate that ABA supplementation alters cytokine expression in the spleen and liver of infected mice consistent with enhanced IgG production and inflammasome activation. Shown are mRNA levels of cytokine and immune-regulators in the spleen (FIG. 23A) and liver (FIG. 23B) of control and ABA-supplemented CD1 mice on day 4 and 7 post-infection with P. yoelii 17XNL. Data are shown as −Δct, normalized to β-actin and were analyzed by unpaired t-test. # p<0.1 * p<0.05 ** p<0.01.

[4] = system: APL1; test: APL1 expression in mosquito midgut; assay type: in vivo, Anopheles stephensi; conditions: 100 nM ABA, 4 and 8 hours post-feeding
Method: For mosquito immune gene expression, 20 midguts were dissected from mosquitoes in each treatment group at 1, 2, 4, 6, 8 and 24 hours post-feeding. Midguts were sonicated and stored in Trizol at −20° C. for up to a week before RNA was extracted according to manufacturer's instructions. cDNA synthesis was carried out using QantiTect Reverse Transcription Kit (Qiagen) and 200 ng of cDNA used per reaction for qRT-PCR with Sybr Green (Applied Biosystems). Fold changes in expression levels were calculated using the comparative threshold cycle method. Data were normalized to the housekeeping gene ribosomal protein S7 and to the control treatment. Primers and cycling conditions for AsNOS, defensin, LRIM, TEP1, and APL1 were as previously described (Hauck E S, et al. Microbes Infect. 2013; 15:775-87). […] Samples were analyzed in triplicate with 250 ng of cDNA per reaction to confirm uniformity of amplification. […] All expression data were analyzed by one sample t-test.
Transcript levels of a panel of immune genes previously described to play a role in the mosquito immune response to malaria parasites were examined. […] Mosquitoes were provided with a P. falciparum-infected bloodmeal supplemented with 100 nM ABA or with an equivalent volume of diluent as control, then analyzed at 1-24 hours post feeding.

[5] = system: nitric oxide synthase (NOS); test: NOS transcript levels in mouse liver and spleen; assay type: in vivo, mice; conditions: day 7 of infection
Method: For mosquito immune gene expression, 20 midguts were dissected from mosquitoes in each treatment group at 1, 2, 4, 6, 8 and 24 hours post-feeding. Midguts were sonicated and stored in Trizol at −20° C. for up to a week before RNA was extracted according to manufacturer's instructions. cDNA synthesis was carried out using QantiTect Reverse Transcription Kit (Qiagen) and 200 ng of cDNA used per reaction for qRT-PCR with Sybr Green (Applied Biosystems). Fold changes in expression levels were calculated using the comparative threshold cycle method. Data were normalized to the housekeeping gene ribosomal protein S7 and to the control treatment. Primers and cycling conditions for AsNOS, defensin, LRIM, TEP1, and APL1 were as previously described (Hauck E S, et al. Microbes Infect. 2013; 15:775-87). For gene expression analysis of mouse liver and spleen, organs were flash frozen after necropsy and stored at −80° C. before RNA was extracted in Trizol and cDNA synthesized. Real-time PCR was performed using TaqMan probe-based expression assays for mouse NOS2, PPARγ (Mm00440940), and β-actin (Applied Biosystems) with volumes and cycling conditions as previously described (Chau et al., Infect Immun, 2013, 81:3515-26). Samples were analyzed in triplicate with 250 ng of cDNA per reaction to confirm uniformity of amplification. […] All expression data were analyzed by one sample t-test.

[6] = system: influenza; conditions: ABA treatment; cited from earlier work
[7] = system: spleen; test: Spleen histology scoring; assay type: in vivo; conditions: P. yoelii-infected mice
Method: Mice were euthanized on day 7 post-infection. Blood was collected by heart puncture, spun at 8,000 rpm for 8 minutes and the plasma collected for ABA quantification. Livers and spleens were collected, retained in 10% formalin for 24 hours and then stored in 70% ethanol before sectioning and staining with hematoxylin and eosin. Liver sections were blindly scored on a scale from 0 to 3 for pigment levels, Kupffer cell density, portal tract inflammation, hemozoin deposition, extramedullary hematopoiesis, sinusoidal leukocyte density, sinusoidal adherence of leukocytes, and presence of microabscesses. Spleen sections were blindly scored on a scale from 0 to 3 for hyperplasia, extramedullary hematopoiesis, pigment, and levels of histiocytes and neutrophils. Pathology scores of control and treated mice were analyzed by unpaired t-test.

With `CC1=CC(=O)CC(C)(C)[C@@]1(O)/C=C/C(C)=C\C(=O)O` (racemic) [ABA, (2Z,4E)-5-[(1S)-1-hydroxy-2,6,6-trimethyl-4-oxocyclohex-2-en-1-yl]-3-methylpenta-2,4-dienoic acid] the “phosphorylation of gsk3” value [1] was “alters phosphorylation”, the gametocyte levels [2] was “no effect” and the “cytokine expression in the spleen and liver” value [3] was “alters”. The APL1 expression [4] was “increased”, the “transcript levels of nitric oxide synthase (NOS)” value [5] was “decreased” and the vascular infiltrates [6] was “decreased”. The viral load [6] was “no effect”, the “histiocyte density, pigment deposition, extramedullary hematopoiesis in the spleen” value [7] was “not altered” and the “lymphoid hyperplasia of the spleen” value [7] was “reduced”.
